According to paper PMC11489552, “Specific targeting of cancer vaccines to antigen-presenting cells via an endogenous TLR2/6 ligand derived from cysteinyl-tRNA synthetase 1” (Molecular Therapy, 2024):
Where two headings read alike, the source gives them in different places.

Columns and labels:
[1] = Pharmacokinetics: plasma level of FAM-labeled antigen after injection; type: in vivo; details: subcutaneous, 5 nmol 5-FAM-labeled, C57BL/6 mice, n = 3 per group, plasma diluted 1:20 in PBS, fluorescence Ex/Em 494/518 nm, followed for 24 h
Experimental: Seven-week-old mice were intravenously or subcutaneously injected with 5 nmol labeled SLP or protein. At the indicated time point, blood was collected using ophthalmic bleeding into heparin-coated micro hematocrit capillary tubes (Fisherbrand, no. 22-362574). After being transferred blood into a microtube, plasma was isolated from blood by centrifugation at 4°C for 10 min at 1,000 × g to eliminate the cells, and then centrifugation at 4°C for 15 min 2,000 × g for removed platelets. The plasma was diluted 1:20 into PBS and measured on Infinite 200 PRO (TECAN) against a standard curve of analytes diluted into PBS (Ex/Em: 494/518 nm). All plasma was normalized to the maximum fluorescence detected in the individual injection sample and plotted as percent injection dose (% ID) versus time. The half-life was calculated by fitting the intravenous plasma curve using C=C0×e^–kt . The subcutaneous curve was fit to C=[F×ka×C0/VD(ka–k)]×(e^–k×t–e^–ka×t ), where C is the plasma concentration of indicated times, C0 is the initial serum concentration, k is the elimination rate constant, F is the systemic absorbance, ka is the absorption rate constant, VD is the volume of distribution.[72] The curve graphs were represented using nonlinear regression on GraphPad Prism.

[2] = Biodistribution to lymph nodes by IVIS imaging; type: in vivo, C57BL/6 mice; details: subcutaneous, 5 nmol FAM-labeled, IVIS over time, n = 3 per group
Experimental: Seven-week-old C57BL/6 mice were subcutaneously injected with 5 nmol FAM-E-, FAM-E+U-, or FAM-labeled EUCV, respectively. After 0.5, 2, 6, or 24 h, organs were collected and washed with PBS to remove any remaining blood. For biodistribution analysis, images were obtained using an In Vivo Imaging System (IVIS) Lumina II imaging systems (PerkinElmer; excitation 494 nm, emission 518 nm) and analyzed by Living Image software.

[3] = system: TC-1 tumors; assay: TC-1 tumor model, combination with anti-PD-1 blockade; type: in vivo, C57BL/6 mice
Experimental: TC-1 tumor cells expressing HPV16-E6 and E7 proteins and E.G7-OVA cells expressing chicken OVA were used to generate of mouse tumor model. For the therapeutic cancer vaccine model, 7-week-old C57BL/6 mice were subcutaneously injected on the right flank with TC-1 cells (1 × 10^5 cells per mouse) in 100 μL DPBS. On day 6 when tumors measured 100 mm^3 […], treatment with 5 nmol of E, E+U, and EUCV was initiated as indicated in the schedule. On day 20 mice were sacrificed, and tumor tissues were collected for TILs analysis. For the anti-PD-1 antibody combination model, 5 nmol of E and EUCV was injected subcutaneously, and 200 μg of anti-PD-1 antibody (BioXcell, clone 29F.1A12, no. BE0273) was injected intraperitoneally as indicated in the schedule. On day 20 mice were sacrificed, and tumor tissues were collected for qRT-PCR and immunohistochemistry analysis. Survival was recorded by observing the mice up to 60 days and mice were euthanized when tumor volume reached 1,500 mm^3. For the E.G7-OVA tumor model, 7-week-old C57BL/6 mice were subcutaneously injected on the right flank with E.G7-OVA cells (1 × 10^6 cells per mouse) in 100 μL DPBS. On day 3 when the tumor measured 100 mm^3 […], treatment with 5 nmol of O, O+U, and OUCV was initiated as indicated in the schedule. On day 17 mice were sacrificed, and tumor tissue was collected for TIL analysis. In all experiments, tumors were measured 3 times a week using a caliper and calculated using the formula V(volume:mm^3)=L(length)×W^2(width)×0.52 ,[5] and mice were euthanize when tumor volume reached 1,500 mm^3.

[4] = system: bone marrow-derived dendritic cells (BMDCs); assay: BMDC stimulation: costimulatory molecules and cytokines; type: cell-based, C57BL/6 mice; details: 100 nM, 24 h, ELISA
Experimental: Bone marrow was harvested from femurs and tibias of C57BL/6 mice. Red blood cells were lysed with Pharm Lyse lysing solution (BD, no. 555899), and the remaining cells were washed using DPBS (HyClone, no. SH30378.02), followed by centrifugation to the collection. Bone marrow cells were resuspended at a concentration of 1 × 10^6 cells/mL in RPMI-1640 medium supplemented with 10% FBS, 1% streptomycin-penicillin, and 20 ng/mL GM-CSF (R&D Systems, no. 415-ML-005). On day 3, add an additional medium of the same supplemented as described above. BMDCs were harvested on day 6 and seeded at 3 × 10^5 cells/mL in 24-well plates for stimulation.
Differentiated THP-1, BMDC (3 × 10^5 cells per well) were seeded, and after 24 h starved with serum-free-medium for 1 h. […] To measure the inflammatory cytokine level, the culture medium was harvested, centrifuged at 500 × g for 10 min at 4°C, and the supernatant was separated. The expression of inflammatory cytokines was measured using hTNF-α (BD, no. 555212), IL-12p70 (BD, no. 555256), IL-12p40 (BD, no. 555165), and IL-6 (BD, no. 555240) ELISA kits according to the manufacturer’s instructions. To investigate the expression of costimulatory molecules on the cell surface, cells were harvested using dissociation buffer (5 mM EDTA in DPBS), washed, and stained with 1 μg/mL antibody, followed by flow cytometry analysis. […]

[5] = system: spleen cells re-stimulated with epitope peptides; assay: SLP screening, IFN-γ ELISpot; type: in vivo, C57BL/6 mice; details: 20 μg SLP with U (100 μg) s.c. twice, spleen cells 7 days after final immunization
Experimental: Seven-week-old C57BL/6 mice were immunized subcutaneously in the right back twice at 1-week intervals using SLPs (HPV16 E6_23–42, E6_43–62, E6_123–143, E75–25, E7_43–62, and E7_76–95; 20 μg per SLP) with U (100 μg). After 7 days at final immunization, cells were isolated from the spleen and seeded in the ELISpot well in triplicates (5 × 10^5 cells per well) with 10 μg/mL of re-stimulatory 8–9 mer epitope peptides (HPV16 E6_29–37, E6_49–57, E6_129–138, E7_11–19, E7_49–57, and E7_82–90), respectively. Antigen-specific immune responses were detected by AID EliSpot Reader (AID, no. ELR08).

[6] = system: DC2.4 cells; assay: In vitro cytotoxicity, CCK-8; details: different concentrations, CCK-8 18 h after treatment
Experimental: (§1) The in vitro cytotoxicity test was assessed using Cell Counting Kit (CCK)-8 assays (Dojindo, no. CK04). DC2.4, Raw 264.7, and TC-1 cells were seeded onto 96-well plates for 24 h before treating them with different concentrations of EUCV and doxorubicin. A 10% CCK-8 solution was added to each well 18 h after treatment, and the plates were incubated at 37°C in a 5% CO2 atmosphere for 30 min to 4 h. The absorbance at 450 nm was detected using an instrument. Relative cell viability was calculated as a percentage of untreated control cells. To assess in vivo toxicity, E7 (100.6 nmol) and EUCV at 25 mpk (25.2 nmol) and 100 mpk (100.6 nmol) were subcutaneously injected into the backs of C57BL/6 mice. […] Mouse body weight was measured immediately after administration and at 24 h intervals, and at 48 h the mice were euthanized to measure spleen size to evaluate splenomegaly. After vaccine administration, blood was drawn at 2, 8, and 24 h, and cytokines IL-6 (BD, no. 555240) and IL-12p40 (BD, no. 555165) in serum were quantified using ELISA.

[7] = system: Raw 264.7 cells; assay: In vitro cytotoxicity, CCK-8; details: different concentrations, CCK-8 18 h after treatment
Experimental: as §1

[8] = system: TC-1 cells; assay: In vitro cytotoxicity, CCK-8; type: cell-based, mouse; details: different concentrations, CCK-8 18 h after treatment
Experimental: as §1

[9] = system: BMDCs; type: cell-based, C57BL/6 mice
[10] = system: BMDCs; assay: In vitro antigen presentation ([…]/H-2K^b) in BMDCs; type: cell-based, C57BL/6 mice
Experimental: To examine TLR2-specific antigen uptake and presentation, BMDCs were isolated from TLR2^WT and TLR2^–/– mice as described above. BMDC cells (3 × 10^5) were seeded in the 24-well plate. […] C8138), 20 or 40 μM dynasore (Sigma, no. 324410), 1 or 2 μM cathepsin S inhibitor (MCE, no. LY 3000328), 1 or 2 μM methyl-β-cyclodextrin (Sigma-Aldrich, no. C4555), or 1 or 2 mM amiloride (Merck, no. A7410) 1 mg/mL for 30 min. After pretreatment, labeled or native samples were treated in the wells, followed by antigen uptake or presentation analyzed by flow cytometry as described above.

[11] = In vivo toxicity (body weight, spleen, serum cytokines); design: species or system C57BL/6 mice; details: s.c.; EUCV 25.2 and 100.6 nmol, Pam2CSK4 100.6 nmol, poly(I:C) 2.5 nmol; serum at 2, 8, 24 h, ELISA
[12] = target: T1, hTLR2/6 (Homo sapiens, UniProt O60603+Q9Y2C9); assay: HEK-Blue SEAP assay (NF-κB); type: cell-based; details: HEK-Blue hTLR2/6 cells, 24 h
T1 construct: host or cells: HEK-Blue hTLR2/6 (HEK293-derived NF-kB/SEAP reporter cells)
T1 sequence (O60603 21-784): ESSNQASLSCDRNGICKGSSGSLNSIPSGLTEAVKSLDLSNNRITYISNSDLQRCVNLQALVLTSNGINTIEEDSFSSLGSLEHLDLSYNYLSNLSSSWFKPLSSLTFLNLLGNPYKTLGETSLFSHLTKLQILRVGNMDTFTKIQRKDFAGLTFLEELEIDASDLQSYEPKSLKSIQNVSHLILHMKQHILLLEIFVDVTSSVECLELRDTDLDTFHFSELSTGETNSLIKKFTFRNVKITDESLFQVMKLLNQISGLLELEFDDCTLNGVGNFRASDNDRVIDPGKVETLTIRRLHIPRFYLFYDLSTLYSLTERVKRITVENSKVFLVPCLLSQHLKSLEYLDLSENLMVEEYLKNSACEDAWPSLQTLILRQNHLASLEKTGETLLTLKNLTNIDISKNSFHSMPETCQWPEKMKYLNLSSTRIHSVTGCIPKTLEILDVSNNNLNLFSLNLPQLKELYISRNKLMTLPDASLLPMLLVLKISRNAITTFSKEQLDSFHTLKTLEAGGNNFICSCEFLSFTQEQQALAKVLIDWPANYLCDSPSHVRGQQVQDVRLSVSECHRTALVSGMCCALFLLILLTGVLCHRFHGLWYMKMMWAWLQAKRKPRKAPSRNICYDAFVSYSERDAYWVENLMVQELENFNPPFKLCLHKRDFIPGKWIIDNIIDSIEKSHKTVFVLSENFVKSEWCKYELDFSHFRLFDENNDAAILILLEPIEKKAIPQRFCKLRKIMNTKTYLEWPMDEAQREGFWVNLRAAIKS
T1 sequence (Q9Y2C9 32-796): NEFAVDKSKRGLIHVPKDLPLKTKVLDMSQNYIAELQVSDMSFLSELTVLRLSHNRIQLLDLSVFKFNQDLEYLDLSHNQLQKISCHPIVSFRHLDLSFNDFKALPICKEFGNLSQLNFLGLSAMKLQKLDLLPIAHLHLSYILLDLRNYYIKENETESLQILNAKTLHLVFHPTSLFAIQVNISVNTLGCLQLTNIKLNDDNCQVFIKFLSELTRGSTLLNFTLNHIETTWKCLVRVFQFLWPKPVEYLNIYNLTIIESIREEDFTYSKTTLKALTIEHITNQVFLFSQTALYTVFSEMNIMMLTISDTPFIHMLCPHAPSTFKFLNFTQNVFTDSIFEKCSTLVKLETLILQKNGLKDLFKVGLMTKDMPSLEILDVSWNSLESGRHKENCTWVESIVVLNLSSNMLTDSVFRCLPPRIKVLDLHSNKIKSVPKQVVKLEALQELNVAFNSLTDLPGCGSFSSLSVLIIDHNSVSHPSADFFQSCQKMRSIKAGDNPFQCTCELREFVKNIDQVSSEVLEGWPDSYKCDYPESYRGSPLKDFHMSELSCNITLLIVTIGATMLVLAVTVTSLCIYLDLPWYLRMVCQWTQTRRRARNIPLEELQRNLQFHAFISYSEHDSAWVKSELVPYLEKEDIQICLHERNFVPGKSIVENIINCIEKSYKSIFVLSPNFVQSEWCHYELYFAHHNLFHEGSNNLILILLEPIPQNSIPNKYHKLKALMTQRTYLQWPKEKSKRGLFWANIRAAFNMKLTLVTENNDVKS
Experimental: HEK-Blue hTLR2/6 (Invivogen, no. hkb-htlr26), hTLR2/1 (Invivogen, no. hkb-htlr21), and hTLR4 (Invivogen, no. hkb-htlr4) cells were cultured in DMEM (HyClone, no. SH30243.01) supplemented with 10% heat-inactivated FBS, 1% penicillin-streptomycin, and 100 μg/mL normocin (Invivogen, no. ant-nr-1), with added HEK-Blue Selection (Invivogen, no. hb-sel) added in medium after the cells were passaged twice. For the SEAP assay, HEK-Blue cells were harvested and resuspended to 2.8 × 10^5 cells/mL in a culture medium. […] The plates were then incubated for 24 h at 37°C, and 5% CO2 and the supernatant was collected. After removing the remaining cells by centrifugation, 20 μL of supernatant was transferred into a 96-well plate with 180 μL QUNATI-Blue solution (Invivogen, no. rep-pbs). All plates were incubated at 37°C, 5% CO2 for 3–4 h, and absorbance was measured at 620 nm with a microplate reader (TECAN, no. 30087502).

[13] = BMDCs pretreated 30 min with inhibitor at various concentrations, then FAM-labeled sample 100 nM 24 h, flow cytometry
[14] = BMDCs pretreated 30 min with inhibitor, then 100 nM O, O+U or OUCV, flow cytometry

For “GQAEPDRAHYNIVTFCCKCD [HPV-16 E7_43–62 synthetic long peptide antigen]”, the “time at which the blood concentration peaked” value [1] was 0.25 h, the “distribution among inguinal, axillary and iliac lymph nodes” value [2] was “diffused distribution to axillary and iliac LNs beyond inguinal LNs near the injection site” and the “mortality by day 26” value ([3]; TC-1 tumor-bearing mice, 5 nmol s.c. days 6 and 13, anti-PD-1 200 μg i.p. days 6, 9, 12, 15, n = 8) was 100%. The “Complete regression (mice / group)” value ([3]; TC-1 tumor-bearing mice, 60 days, n = 8 per group, printed in Figure 5C) was 0/8, the tumor growth ([3]; TC-1 tumors, 5 nmol s.c. days 6 and 13, with or without anti-PD-1 blockade, n = 8) was “Neither E alone nor the combination of E+αPD-1 blockade significantly suppressed tumor growth” and the “secretion of IL-12p70 and IL-6” value [4] was “absent”. The “IFN-γ activity among E6- and E7-derived SLPs” value [5] was “highest interferon gamma (IFN-γ) activity”.

In the case of `COc1cccc2c1C(=O)c1c(O)c3c(c(O)c1C2=O)C[C@@](O)(C(=O)CO)C[C@@H]3O[C@H]1C[C@H](N)[C@H](O)[C@H](C)O1` [doxorubicin], the “cytotoxicity (relative cell viability)” value [6] is reported as “concentration-dependent toxicity”, the “cytotoxicity (relative cell viability)” value [7] is reported as “concentration-dependent toxicity” and the “cytotoxicity (relative cell viability)” value [8] is reported as “concentration-dependent toxicity”.

With `O=C(N/N=C/c1ccc(O)c(O)c1)c1cc2ccccc2cc1O` [dynasore] the “effect of endocytosis/processing inhibitor on E+U and EUCV uptake” value [9, 13] was “reduced E+U and EUCV uptake” and the “effect of inhibitor on antigen presentation (SIINFEKL/H-2K^b)” value (shortened to “effect of inhibitor”) [10, 14] was “reduced”.

For `N=C(N)NC(=O)c1nc(Cl)c(N)nc1N` [amiloride], the “effect of endocytosis/processing inhibitor on E+U and EUCV uptake” value [9, 13] was “no change”.

For poly(I:C), the “bloodstream cytokines (IL-6, IL-12p40), systemic toxicity” value [11] was “significant inflammatory cytokine expression”.

In the case of `CNC(=O)O[C@H]1COc2ccc(N3CCN(C4COC4)CC3)cc2[C@@H]1NC(=O)c1ccc(F)cc1` [CS], the “effect of endocytosis/processing inhibitor on E+U and EUCV uptake” value [9] is reported as “no change” and the “effect of inhibitor” value [10] is reported as “reduction in antigen presentation”.

In the case of `CN(C)CCCN1c2ccccc2Sc2ccc(Cl)cc21` [CM, chlorpromazine], the “effect of endocytosis/processing inhibitor on E+U and EUCV uptake” value [9, 13] is reported as “reduced E+U and EUCV uptake” and the “effect of inhibitor” value [10, 14] is reported as “reduced”.

With methyl-β-cyclodextrin [Mbcd] the “effect of endocytosis/processing inhibitor on E+U and EUCV uptake” value [9, 13] was “no change”.

With Pam2CSK4 the “bloodstream cytokines (IL-6, IL-12p40), systemic toxicity” value [11] was “significant inflammatory cytokine expression” and the “nuclear factor κB induction (SEAP, OD620)” value [12] was “induced nuclear factor κB in TLR2/6-expressing cells”.
